IC50 data for 19 compounds are collected here from patent publication US20240391882A1 (Mirati Therapeutics, Inc., priority 2023, published 2024).

Molecules are shown by their SMILES.

Holding throughout (assay type): cell-based
Test [1] deals with pAKT in T47D (PI3Kα H1047R mutant) cells. The experiment in a line: Inhibition of pAKT (alphaLISA Surefire Ultra AKT 1/2/3 pS473) in T47D cells. To be noted: Homo sapiens; T47D (PI3Kα H1047R mutant) cells, 24 hr compound incubation, alphaLISA pS473; read-out: T47D (H1047R) pAKT 24 hr (IC50). The method in brief: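 AlphaLISA read-out of AKT pS473 in lysates after roughly 24 h compound exposure at 37° C in HBSS. Ten concentrations, 1:4 dilutions from a 10.4 μm top dose. Percent of control uses alpelisib at 3.125 μm as background and DMSO as vehicle; four-parameter curve gives IC50.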
Background: Alpha assays give light when donor and acceptor beads are brought close together.

Test [2] concerns T47D (PI3Kα H1047R mutant) cells. The experiment in a line: Cell viability (CellTiter-Glo 2.0) in T47D cells. The conditions noted are these: Homo sapiens, T47D, 72 h, approximately 72 hours. The method in brief:
(§1)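 IC50 values derive from four-parameter fits of CellTiter-Glo luminescence expressed as percent of vehicle control. Cells (T47D or SKBR3) were plated at 1000/well the day before dosing and incubated about 72 h at 37° C with a 10-point, 1:4 series starting at 10 μm.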

Test [3] has as its system SKBR3 (PI3Kα wild type) cells. The test is described as follows: Cell viability (CellTiter-Glo 2.0) in SKBR3 cells. To be noted: Homo sapiens, SK-BR-3; SKBR3 (PI3Kα wild type) cells, approximately 72 hours, CellTiter-Glo 2.0; read-out: SKBR3 (WT) Viability IC50. The method in brief: as §1
(In general: Cellular ATP, detected with luciferase, serves as a proxy for viable cell number.)

By IC50 is commonly meant the concentration that gives 50% inhibition.

For `Cc1cc([C@@H](C)Nc2ccc(Cl)nc2C(=O)O)c2nc(N3CCc4ccc(C#N)cc4C3)c(C#N)nc2c1` [Example 217, (R)-6-chloro-3-((1-(2-cyano-3-(7-cyano-3,4-dihydroisoquinolin-2(1H)-yl)-7-methylquinoxalin-5-yl)ethyl)amino)picolinic acid], the IC50 in test [1] is 0.69 nM; in test [2] it was 64 nM; in test [3], above 10000 nM.

`Cc1cc([C@@H](C)Nc2ccc(Cl)nc2C(=O)O)c2nc(N3CC4CC[C@@]4(F)C3)c(C#N)nc2c1` (single isomer, unassigned) [Example 244A]: the concentration for half-maximal inhibition (IC50) in test [1] was 1.2 nM; in test [2] it was 57 nM; in test [3] it was above 10000 nM.

`C[C@H](Nc1ccccc1C(=O)O)c1cc(C#N)cc2nc(C#N)c(N3CCC(F)(F)CC3)nc12` [Example 27, (S)-2-((1-(2,7-dicyano-3-(4,4-difluoropiperidin-1-yl)quinoxalin-5-yl)ethyl)amino)benzoic acid]: the IC50 in test [1] was 1140 nM; in test [2] it was above 10000 nM; in test [3] it was above 10000 nM.

With `Cc1cc([C@@H](C)Nc2ccc(Cl)nc2C(=O)O)c2nc(N3CCC4(CC3)COC4)c(C#N)nc2c1` [Example 249, (R)-6-chloro-3-((1-(2-cyano-7-methyl-3-(2-oxa-7-azaspiro[3.5]nonan-7-yl)quinoxalin-5-yl)ethyl)amino)picolinic acid], the IC50 was 1.7 nM in test [1], 16 nM in test [2] and 6650 nM in test [3].

Consider `Cc1cc([C@@H](C)Nc2ccc(Cl)nc2C(=O)O)c2nc(N3C[C@H](C)OC[C@H]3C)c(C#N)nc2c1` [Example 238A, 6-chloro-3-(((R)-1-(2-cyano-3-((2S,5R)-2,5-dimethylmorpholino)-7-methylquinoxalin-5-yl)ethyl)amino)picolinic acid], for which the figures for the IC50 in test [1], in test [2] and in test [3] were 10.4 nM, 216 nM and above 10000 nM, respectively.

Regarding `COC1(C)CN(c2nc3c([C@@H](C)Nc4ccccc4C(=O)O)cc(C)cc3nc2C#N)C1` [Example 63, (R)-2-((1-(2-cyano-3-(3-methoxy-3-methylazetidin-1-yl)-7-methylquinoxalin-5-yl)ethyl)amino)benzoic acid], the IC50 was 16.5 nM in test [1], 254 nM in test [2] and 9810 nM in test [3].

For `Cc1cc([C@@H](C)Nc2ccc(Cl)nc2C(=O)O)c2nc(N3CCC(C)(C)CC3)c(C#N)nc2c1` [Example 62, (R)-6-chloro-3-((1-(2-cyano-3-(4,4-dimethylpiperidin-1-yl)-7-methylquinoxalin-5-yl)ethyl)amino)picolinic acid], the IC50 is 7.9 nM in test [1], 220 nM in test [2] and 7080 nM in test [3].

With `C[C@@H](Nc1ccccc1C(=O)O)c1cc(F)cc2nc(C#N)c(N3CCC(F)(F)CC3)nc12` [Example 32, (R)-2-((1-(2-cyano-3-(4,4-difluoropiperidin-1-yl)-7-fluoroquinoxalin-5-yl)ethyl)amino)benzoic acid], the concentration for half-maximal inhibition (IC50) in test [1] was 10.2 nM; in test [2] it was 265 nM; in test [3] it was above 10000 nM.

Take `Cc1cc([C@@H](C)Nc2ccc(Cl)nc2C(=O)O)c2nc(N3C[C@@H](CO)C(F)(F)C3)c(C#N)nc2c1` (single isomer, unassigned) [Example 210B]: the results for the IC50 in test [1], in test [2] and in test [3] were 0.8 nM, 121 nM and above 10000 nM, respectively.

With `Cc1cc([C@@H](C)Nc2ccc(Cl)nc2C(=O)O)c2nc(N3CCOCC3)c(C#N)nc2c1` [Example 58, (R)-6-chloro-3-((1-(2-cyano-7-methyl-3-morpholinoquinoxalin-5-yl)ethyl)amino)picolinic acid], the IC50 is 1.8 nM in test [1], 24 nM in test [2] and 3500 nM in test [3].

For `C[C@H](Nc1ccccc1C(=O)O)c1cc(Cl)cc2nc(C#N)c(N3CCC(F)(F)CC3)nc12` [Example 29, (S)-2-((1-(7-chloro-2-cyano-3-(4,4-difluoropiperidin-1-yl)quinoxalin-5-yl)ethyl)amino)benzoic acid], the IC50 in test [1] is 117 nM; in test [2] it was 3480 nM; in test [3], above 10000 nM.

Turning to `Cc1cc([C@@H](C)Nc2ccccc2C(=O)O)c2nc(NC[C@]3(C)CC3(F)F)c(C#N)nc2c1` (single isomer, unassigned) [Example 75A], the IC50 in test [1] is 52 nM; in test [2], 701 nM; in test [3] it was above 10000 nM.

As for `Cc1cc([C@@H](C)Nc2ccc(Cl)nc2C(=O)O)c2nc(N3CCO[C@H](C(F)(F)F)C3)c(C#N)nc2c1` [Example 190A, 6-chloro-3-(((R)-1-(2-cyano-7-methyl-3-((S)-2-(trifluoromethyl)morpholino)quinoxalin-5-yl)ethyl)amino)picolinic acid], the IC50 in test [1] is 4.4 nM; in test [2], 271 nM; in test [3] it was above 10000 nM.

With `Cc1cc([C@@H](C)Nc2ccc(Cl)nc2C(=O)O)c2nc(N3CCN(c4cc(C)on4)CC3)c(C#N)nc2c1` [Example 201, (R)-6-chloro-3-((1-(2-cyano-7-methyl-3-(4-(5-methylisoxazol-3-yl)piperazin-1-yl)quinoxalin-5-yl)ethyl)amino)picolinic acid], the IC50 in test [1] came out at 0.27 nM; in test [2], 10.5 nM; in test [3], 7810 nM.

With `Cc1cc([C@@H](C)Nc2ccc(Cl)nc2C(=O)O)c2nc(N3CCCC3)c(C#N)nc2c1` [Example 69, (R)-6-chloro-3-((1-(2-cyano-7-methyl-3-(pyrrolidin-1-yl)quinoxalin-5-yl)ethyl)amino)picolinic acid], the IC50 in test [1] is 2.1 nM; in test [2], 50.2 nM; in test [3], 9650 nM.

As to `Cc1cc([C@@H](C)Nc2ccccc2C(=O)O)c2nc(N3CCCC3)c(C#N)nc2c1` [Example 68, (R)-2-((1-(2-cyano-7-methyl-3-(pyrrolidin-1-yl)quinoxalin-5-yl)ethyl)amino)benzoic acid], the concentration for half-maximal inhibition (IC50) in test [1] was 24.4 nM; in test [2] it was 391 nM; in test [3], above 10000 nM.

As to `Cc1cc([C@@H](C)Nc2ccc(Cl)nc2C(=O)O)c2nc(N3C[C@H](F)C[C@H]3C)c(C#N)nc2c1` [Example 246C, 6-chloro-3-(((R)-1-(2-cyano-3-((2R,4R)-4-fluoro-2-methylpyrrolidin-1-yl)-7-methylquinoxalin-5-yl)ethyl)amino)picolinic acid], the IC50 in test [1] was 0.97 nM; in test [2], 46 nM; in test [3] it was 3400 nM.

As for `Cc1cc([C@@H](C)Nc2ccc(Cl)nc2C(=O)O)c2nc(N3CC4CCC4(F)C3)c(C#N)nc2c1` (single isomer, unassigned) [Example 244B], the IC50 is 1.3 nM in test [1], 89 nM in test [2] and above 10000 nM in test [3].

Take `Cc1cc([C@@H](C)Nc2ccc(Cl)nc2C(=O)O)c2nc(N3CC4(CCOC4)C3)c(C#N)nc2c1` [Example 251, (R)-6-chloro-3-((1-(2-cyano-7-methyl-3-(6-oxa-2-azaspiro[3.4]octan-2-yl)quinoxalin-5-yl)ethyl)amino)picolinic acid]: the 50% inhibitory concentration (IC50) in test [1] was 1.1 nM; in test [2] it was 11 nM; in test [3], above 10000 nM.
